Reference: US6566545B2, “Menthol derivatives and process for preparing the same” (Pacific Corporation, priority 2001, dated 2003)

Legend:
[1] = system: back of New Zealand White Rabbit; assay: Retinol-induced skin irritation on rabbit back, Draize Primary Irritation Index; type: in vivo; details: for Irritation Index: Draize Primary Irritation Index, 0.01% agent applied with 1000 I.U. retinol as irritation source, twice a day, rabbit back skin; for Relative Ratio: irritation relative to blank applied only with retinol, 0.01% agent
Experimental: The hairs on the back of New Zealand White Rabbit were removed and fed with sufficient water and nutrition. At the areas of 1.5 cm×1.5 cm on the back of the rabbit, menthol, menthol 3-aminopropylphosphate (MPA) and 1000 I.U. of retinol as irritation source were applied respectively. The number of applying positions for each rabbit was 8˜10, and the agents were applied twice a day with 6 hours of time interval. The applied positions were exposed to air. Erythema, rash or edema was measured everyday after 48 hours has passed from the first apply during 1 week to observe the irritation. According to the “Primary Irritation Index” of Draize, the degree of irritation was determined. Relative irritation was calculated with the ratio to the blank sample that applied only with retinol, and the results are shown in Table 1 and FIG. 1.

phosphatase = assay: Hydrolysis by phosphatase in phosphoric buffer pH 7.4, HPLC; type: in vitro ADME; details: 3-aminopropylphosphoric acid measured by HPLC (FIG. 2)
Experimental: To clarify the activity of menthol 3-aminopropylphosphate obtained in Example 2, the hydrolysis of the menthol 3-aminopropylphosphate by a phosphatase in the skin was observed. That is, the preparation of menthol and 3-aminopropylphosphoric acid by the hydrolysis was observed.
3-aminopropylphosphate and phosphatase were added to phosphoric buffer solution with pH 7.4, then, hydrolysis was performed. The phosphatase used above was Alkaline Phosphate manufactured by SIGMA, Co., Ltd.
The amount of the 3-aminopropylphosphoric acid prepared by the hydrolysis was measured by means of HPLC, and the results are shown in FIG. 2.

[2] = Solubility in aqueous and aqueous mixed solution
From the text: To observe the solubility of the menthol 3-aminopropylphosphate in the aqueous phase, solubility were measure in aqueous and aqueous mixed solution.
Menthol was used as relativity group.

SMILES: CC1CCC(C(C)C)C(O)C1 (stereo not drawn) [menthol]
- Irritation Index [1]: 9.34
- Relative Ratio [1]: 0.97

SMILES: C[C@]12CCC(=O)C=C1CC[C@@H]1[C@@H]2[C@@H](O)C[C@@]2(C)[C@H]1CC[C@]2(O)C(=O)CO [hydrocortisone]
- Irritation Index [1]: 5.10
- Relative Ratio [1]: 0.53

SMILES: CC1CCC(C(C)C)C(OP(=O)(O)OCCCN)C1 (stereo not drawn) [menthol 3-aminopropyl phosphate, Menthol 3-Aminopropylphosphate]
- hydrolysis by phosphatase (phosphatase): hydrolyzed by the phosphatase of the skin and formed menthol and 3-aminopropylphosphoric
- Irritation Index [1]: 6.07
- Relative Ratio [1]: 0.63
- solubility ([2]; H2O): 0.3%
- solubility ([2]; H2O:1,3-BG = 1:1): 5%
- solubility ([2]; H2O:Ethanol = 1:1): 6%
- solubility ([2]; H2O:Ethanol = 5:1): 1%
- aqueous solubility compared with menthol ([2]; in words): increased very much compared with menthol itself
